Structures are written as SMILES. Structures can show the parent of a compound that is named as a salt. Where two headings read alike, the source gives them in different places. Non-standard residues stand in square brackets, D forms with d. Residues, ends and D or L forms follow the SMILES beside them. *: point of attachment. dHis(τ-Bn) = N[C@H](Cc1cn(Cc2ccccc2)cn1)C(=O)O; d2Nal = N[C@H](Cc1ccc2ccccc2c1)C(=O)O; pGlu = O=C1CC[C@@H](C(=O)O)N1; tBu = CC(C)(C)*

The conditions of data set [1]: pH 7.4.
A short description of data set [2]: Stability in aqueous media (PBS pH 7.4). The class given is physicochemical. Also on record: unit not given here. The settings on record: phosphate buffer solution (PBS); PBS pH 7.4, 37° C., samples at T=0, 4, 24, 96 h; read-out: Stability grading (t1/2). The text has this: LC/MS data was collected for compound identity.
In data set [3] the target is T1, GnRHR (Homo sapiens, UniProt P30968).
T1 construct: host or cells: CHO-K1 (CHO-K1/GnRHR/Ga15)
T1 sequence (P30968 1-328): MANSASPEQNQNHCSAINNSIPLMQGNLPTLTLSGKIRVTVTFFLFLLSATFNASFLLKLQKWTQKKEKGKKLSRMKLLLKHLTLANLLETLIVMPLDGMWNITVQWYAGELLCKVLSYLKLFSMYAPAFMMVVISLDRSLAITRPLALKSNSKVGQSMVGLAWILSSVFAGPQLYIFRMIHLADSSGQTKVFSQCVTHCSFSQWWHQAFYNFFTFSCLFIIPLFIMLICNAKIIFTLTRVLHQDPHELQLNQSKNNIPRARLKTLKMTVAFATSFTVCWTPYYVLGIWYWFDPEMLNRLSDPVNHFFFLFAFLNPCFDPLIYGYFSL
Description: Calcium assay in CHO-K1 cells (Genscript), FLIPR. In kind it is cell-based. The settings on record: CHO-K1/GnRHR/Ga15 cells, relative to agonist control, read-out: GNRHR Stimulation at 1 μM. Here is the method:
Test article sample solutions were dissolved in HBSS buffer (with 20 mM HEPES buffer, pH 7.4) to form the 5× working solution. FLIPR® Calcium 4 assay kit from Molecular devices (R8141) was used as required. In brief, CHO-K1 cells expressing GnRHR (CHO-K1/GnRHR/Ga15, Genscript accession NM_000406) were respectively cultured in the 10-cm dishes and maintained at 37° C./5% CO2. CHO-K1 cells expressing GNRHR were respectively seeded in a 384-well black-wall, clear-bottom plate at a density of 15,000 cells per well in 20 μl of growth medium about 18 hours prior to the day of experiment and maintained at 37° C./5% CO2. Then, 20 μl of dye loading solution was added into the wells and the plates were subsequently placed into a 37° C. incubator for 60 minutes, followed by a 15 minutes' incubation at room temperature. At last, 10 μl of compounds or control agonist were added into respective wells of the assay plate during reading in FLIPR. The plate containing 5× compound and control agonist solution was placed in FLIPR. Solutions were added into the cell plate automatically at the 20 seconds and the fluorescence signal was monitored for an additional 100 seconds (21 sec to 120 sec.). Data were recorded by ScreenWorks (version 3.1) as FMD files with FLIPR and stored on the GenScript computer network for off-line analysis. Data acquisition and analyses was performed using ScreenWorks (version 3.1) program and exported to Excel. The average value of the first 20 seconds' reading was calculated as the baseline and the relative fluorescent units (ΔRFU) intensity values were calculated by subtracting the average value of baseline from the maximum fluorescent units (21 s to 120 s).
The % Stimulation was calculated with the following equation: % Stimulation=(ΔRFUCompound−ΔRFUBackground)/(ΔRFUAgonist control−ΔRFUBackground)×100
Dose response curves were fitted with four-parameter-logistic-equation by the software GraphPad Prism 6.
Equation: four parameter logistic equation. Y=Bottom+(Top-Bottom)/(1+10^((Log EC50−X)×Hillslope))
X is the logarithm of concentration. Y is the response.

The nature of data set [4]: Solubility in PBS (LC/UV AUC trend). The settings on record: PBS pH 7.4, 0.2 mg/ml; rating 1 (good) to 5 (poor).

In the case of `CCNC(=O)[C@@H]1CCCN1C(=O)[C@H](CCCNC(=N)N)NC(=O)[C@H](CC(C)C)NC(=O)[C@@H](CC(C)C)NC(=O)[C@H](Cc1ccc(O)cc1)NC(=O)[C@H](CO)NC(=O)[C@H](Cc1c[nH]c2ccccc12)NC(=O)[C@H](Cc1c[nH]cn1)NC(=O)[C@@H]1CCC(=O)N1` [Leuprorelin acetate], the Solubility grading in data set [1] is reported as 2.
For `CCNC(=O)[C@@H]1CCCN1C(=O)[C@H](CCCNC(=N)N)NC(=O)[C@H](Cc1c[nH]c2ccccc12)NC(=O)[C@@H](COC(C)(C)C)NC(=O)[C@H](Cc1c[nH]cn1)NC(=O)[C@H](CO)NC(=O)[C@H](Cc1c[nH]c2ccccc12)NC(=O)[C@H](Cc1c[nH]cn1)NC(=O)[C@@H]1CCC(=O)N1` [Compound 10, pGlu-His-Trp-Ser-His-D-Ser(tBu)-Trp-Arg-Pro-NHEt] ([pGlu]HWSH[dS](tBu)WRP-NHEt), the half-life at 0.2 mg/ml in data set [2] was over 96. In data set [3], the activation at 1 µM stood at 81%. Besides, in data set [4], the Solubility grading came to 1.
On the same counts, the results for `CC(C)C[C@H](NC(=O)[C@@H](Cc1ccc2ccccc2c1)NC(=O)[C@H](Cc1c[nH]cn1)NC(=O)[C@H](CO)NC(=O)[C@H](Cc1c[nH]c2ccccc12)NC(=O)[C@H](Cc1c[nH]cn1)NC(=O)[C@@H]1CCC(=O)N1)C(=O)N[C@@H](CCCNC(=N)N)C(=O)N1CCC[C@H]1C(=O)NCC(N)=O` [Compound 23, pGlu-His-Trp-Ser-His-D-Nal-Leu-Arg-Pro-Gly-amide] ([pGlu]HWSH[d2Nal]LRPG-NH2) are over 96, 106% and 1.
Take `NC(=O)CNC(=O)[C@@H]1CCCN1C(=O)[C@H](Cc1ccc(O)cc1)NC(=O)[C@H](Cc1c[nH]c2ccccc12)NC(=O)[C@@H](Cc1ccc2ccccc2c1)NC(=O)[C@H](Cc1ccc(O)cc1)NC(=O)[C@H](CO)NC(=O)[C@H](Cc1c[nH]c2ccccc12)NC(=O)[C@H](Cc1c[nH]cn1)NC(=O)[C@@H]1CCC(=O)N1` [Compound 30, pGlu-His-Trp-Ser-Tyr-D-Nal-Trp-Tyr-Pro-Gly-amide] ([pGlu]HWSY[d2Nal]WYPG-NH2): in data set [2], the half-life at 0.2 mg/ml was under 96. In data set [3], the activation at 1 µM was 12%. In data set [4], this molecule registered a Solubility grading of 1.
Regarding `CCNC(=O)[C@@H]1CCCN1C(=O)[C@H](CCCNC(=N)N)NC(=O)[C@H](CC(C)C)NC(=O)[C@@H](CC(C)C)NC(=O)[C@H](Cc1ccc(O)cc1)NC(=O)[C@H](CO)NC(=O)[C@H](Cc1c[nH]c2ccccc12)NC(=O)[C@H](Cc1c[nH]cn1)NC(=O)[C@@H]1CCC(=O)N1` [Leuprorelin TFA], the Solubility grading in data set [1] is 1.
As for `CCNC(=O)[C@@H]1CCCN1C(=O)[C@H](CCCNC(=N)N)NC(=O)[C@H](CC(C)C)NC(=O)[C@@H](COC(C)(C)C)NC(=O)[C@H](Cc1c[nH]cn1)NC(=O)[C@H](CO)NC(=O)[C@H](Cc1c[nH]c2ccccc12)NC(=O)[C@H](Cc1c[nH]cn1)NC(=O)[C@@H]1CCC(=O)N1` [Compound 6, pGlu-His-Trp-Ser-His-D-Ser(tBu)-Leu-Arg-Pro-NHEt] ([pGlu]HWSH[dS](tBu)LRP-NHEt), the half-life at 0.2 mg/ml in data set [2] was over 96. Moreover, in data set [3], the activation at 1 µM was found to be 88%. For the same molecule, the Solubility grading in data set [4] is listed as 1.
On to `CCNC(=O)[C@@H]1CCCN1C(=O)[C@H](CCCNC(=N)N)NC(=O)[C@H](CC(C)C)NC(=O)[C@@H](Cc1cn(Cc2ccccc2)cn1)NC(=O)[C@H](Cc1c[nH]cn1)NC(=O)[C@H](CO)NC(=O)[C@H](Cc1c[nH]c2ccccc12)NC(=O)[C@H](Cc1c[nH]cn1)NC(=O)[C@@H]1CCC(=O)N1` [Compound 56, pGlu-His-Trp-Ser-His-D-Bhi-Leu-Arg-Pro-NHEt] ([pGlu]HWSH[dHis(τ-Bn)]LRP-NHEt), for which, in data set [2], the half-life at 0.2 mg/ml was over 96. The activation at 1 µM in data set [3] worked out at 96%. The Solubility grading in data set [4] was 1.
On the same counts, the results for `CCNC(=O)[C@@H]1CCCN1C(=O)[C@H](Cc1ccc(O)cc1)NC(=O)[C@H](CC(C)C)NC(=O)[C@@H](COC(C)(C)C)NC(=O)[C@H](Cc1c[nH]cn1)NC(=O)[C@H](CO)NC(=O)[C@H](Cc1c[nH]c2ccccc12)NC(=O)[C@H](Cc1c[nH]cn1)NC(=O)[C@@H]1CCC(=O)N1` [Compound 11, pGlu-His-Trp-Ser-His-D-Ser(tBu)-Leu-Tyr-Pro-NHEt] ([pGlu]HWSH[dS](tBu)LYP-NHEt) are over 96, 76% and 1.
In the same order, the values of `CCNC(=O)[C@@H]1CCCN1C(=O)[C@H](CCCNC(=N)N)NC(=O)[C@H](CC(C)C)NC(=O)[C@@H](CC(C)C)NC(=O)[C@H](Cc1c[nH]cn1)NC(=O)[C@H](CO)NC(=O)[C@H](Cc1c[nH]c2ccccc12)NC(=O)[C@H](Cc1c[nH]cn1)NC(=O)[C@@H]1CCC(=O)N1` [Compound 42, pGlu-His-Trp-Ser-His-D-Leu-Leu-Arg-Pro-NHEt] ([pGlu]HWSH[dL]LRP-NHEt) are over 96, 102% and 1.
On the same counts, the results for `CCNC(=O)[C@@H]1CCCN1C(=O)[C@H](CCCNC(=N)N)NC(=O)[C@H](Cc1c[nH]c2ccccc12)NC(=O)[C@@H](Cc1cn(Cc2ccccc2)cn1)NC(=O)[C@H](Cc1ccc(O)cc1)NC(=O)[C@H](CO)NC(=O)[C@H](Cc1c[nH]c2ccccc12)NC(=O)[C@H](Cc1c[nH]cn1)NC(=O)[C@@H]1CCC(=O)N1` [Compound 67, pGlu-His-Trp-Ser-Tyr-D-Bhi-Trp-Arg-Pro-NHEt] ([pGlu]HWSY[dHis(τ-Bn)]WRP-NHEt) are under 96, 117% and 1.
Turning to `NC(=O)CNC(=O)[C@@H]1CCCN1C(=O)[C@H](Cc1ccc(O)cc1)NC(=O)[C@H](Cc1c[nH]c2ccccc12)NC(=O)[C@@H](Cc1c[nH]c2ccccc12)NC(=O)[C@H](Cc1ccc(O)cc1)NC(=O)[C@H](CO)NC(=O)[C@H](Cc1c[nH]c2ccccc12)NC(=O)[C@H](Cc1c[nH]cn1)NC(=O)[C@@H]1CCC(=O)N1` [Compound 64, pGlu-His-Trp-Ser-Tyr-D-Trp-Trp-Tyr-Pro-Gly-amide] ([pGlu]HWSY[dW]WYPG-NH2), the half-life at 0.2 mg/ml in data set [2] was under 96. The activation at 1 µM in data set [3] was 50%. This molecule also returned a Solubility grading in data set [4] of 5.
In the same order, the values of `CCNC(=O)[C@@H]1CCCN1C(=O)[C@H](Cc1ccc(O)cc1)NC(=O)[C@H](CC(C)C)NC(=O)[C@@H](COC(C)(C)C)NC(=O)[C@H](Cc1ccc(O)cc1)NC(=O)[C@H](CO)NC(=O)[C@H](Cc1c[nH]c2ccccc12)NC(=O)[C@H](Cc1c[nH]cn1)NC(=O)[C@@H]1CCC(=O)N1` [Compound 9, pGlu-His-Trp-Ser-Tyr-D-Ser(tBu)-Leu-Tyr-Pro-NHEt] ([pGlu]HWSY[dS](tBu)LYP-NHEt) are over 96, 78% and 1.
On the same counts, the results for `CCNC(=O)[C@@H]1CCCN1C(=O)[C@H](Cc1ccc(O)cc1)NC(=O)[C@H](Cc1c[nH]c2ccccc12)NC(=O)[C@@H](Cc1cn(Cc2ccccc2)cn1)NC(=O)[C@H](Cc1ccc(O)cc1)NC(=O)[C@H](CO)NC(=O)[C@H](Cc1c[nH]c2ccccc12)NC(=O)[C@H](Cc1c[nH]cn1)NC(=O)[C@@H]1CCC(=O)N1` [Compound 62, pGlu-His-Trp-Ser-Tyr-D-Bhi-Trp-Tyr-Pro-NHEt] ([pGlu]HWSY[dHis(τ-Bn)]WYP-NHEt) are under 96, 77% and 5.
On the same counts, the results for `CCNC(=O)[C@@H]1CCCN1C(=O)[C@H](Cc1ccc(O)cc1)NC(=O)[C@H](Cc1c[nH]c2ccccc12)NC(=O)[C@@H](CC(C)C)NC(=O)[C@H](Cc1c[nH]cn1)NC(=O)[C@H](CO)NC(=O)[C@H](Cc1c[nH]c2ccccc12)NC(=O)[C@H](Cc1c[nH]cn1)NC(=O)[C@@H]1CCC(=O)N1` [Compound 50, pGlu-His-Trp-Ser-His-D-Leu-Trp-Tyr-Pro-NHEt] ([pGlu]HWSH[dL]WYP-NHEt) are over 96, 105% and 1.

Values taken from patent US11434258B2, “Compounds (immunorhelins)” (ISR IMMUNE SYSTEM REGULATION HOLDING AB (PUBL), priority 2017, dated 2022).
